Results: patent publication EP0710486A1, “REMEDY FOR URINATION DISORDER ACCOMPANYING PROSTATIC HYPERTROPHY” (YAMANOUCHI PHARMACEUTICAL CO. LTD., priority 1993, dated 1995)
Where two headings read alike, the source gives them in different places.

How the values were obtained:
rat α1B-receptor subtype [1] = biological target: T1, rat α1B-receptor subtype (Rattus norvegicus, UniProt P15823); assay: Competitive binding experiment against [³H] prazosin, transfected COS-7 cell membranes; design: pcDV1Rα1B which contains a 2573 bp fragment containing the entire coding region of α1B receptor subtype cDNA; expressed in transfected cells; host or cells: COS-7 cells, transient expression, membrane preparation
T1 sequence (P15823 1-515): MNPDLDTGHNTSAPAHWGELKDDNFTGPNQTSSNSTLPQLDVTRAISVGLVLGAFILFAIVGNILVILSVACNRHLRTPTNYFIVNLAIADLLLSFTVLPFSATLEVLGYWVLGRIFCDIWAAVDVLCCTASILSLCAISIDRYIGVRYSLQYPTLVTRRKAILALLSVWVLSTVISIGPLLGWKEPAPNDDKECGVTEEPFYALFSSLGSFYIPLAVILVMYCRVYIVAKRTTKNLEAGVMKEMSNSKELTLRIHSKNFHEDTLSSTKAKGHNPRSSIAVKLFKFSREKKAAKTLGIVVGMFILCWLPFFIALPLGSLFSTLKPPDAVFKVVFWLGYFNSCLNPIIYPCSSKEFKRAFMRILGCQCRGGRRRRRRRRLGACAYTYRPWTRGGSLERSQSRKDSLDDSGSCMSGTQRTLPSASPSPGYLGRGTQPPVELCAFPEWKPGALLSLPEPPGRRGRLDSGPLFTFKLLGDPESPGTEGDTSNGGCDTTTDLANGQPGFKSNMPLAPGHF
Protocol: (§1) After 4 days of the transfection, these cells were again suspended in an ice-cold buffer for binding experiment (50 mmol/l Tris, 0.5 mmol/l EDTA, pH 7.5) and homogenized using Tissumeizer for 10 seconds at a maximum speed and then twice for 20 seconds at 2/3 speed. The thus obtained homogenate was centrifuged at 50,000 g for 20 minutes, and the resulting pellet was again suspended in the buffer for binding experiment to a concentration of 0.5 to 2 mg/ml.
(§2) This incubation was terminated by quick filtration under a reduced pressure using Whatman GF/C filter paper. Non-specific binding was defined as binding in the presence of 10 µmol/l of phentolamine. […] The protein content was determined in accordance with the Bradford method using bovine IgG as an standard. In the competitive binding experiment, each compound was evaluated by 3 to 4 tests using at least two separate batches of transfected cells.
(§3) The result was shown as the average value ± SEM of n times of tests.

[2] = human clinical tests (K. Kawabe et al., J. Urol., 1990); cited from earlier work
[3] = biological target: T2, bovine α1C-receptor subtype (Bos taurus, UniProt P18130); assay: Competitive binding experiment against [³H] prazosin, transfected COS-7 cell membranes
T2 construct: pBCα1c which contains the entire coding region of bovine α1C receptor subtype; expressed in transfected cells; host or cells: COS-7 cells, transient expression, membrane preparation
T2 sequence (P18130 1-466): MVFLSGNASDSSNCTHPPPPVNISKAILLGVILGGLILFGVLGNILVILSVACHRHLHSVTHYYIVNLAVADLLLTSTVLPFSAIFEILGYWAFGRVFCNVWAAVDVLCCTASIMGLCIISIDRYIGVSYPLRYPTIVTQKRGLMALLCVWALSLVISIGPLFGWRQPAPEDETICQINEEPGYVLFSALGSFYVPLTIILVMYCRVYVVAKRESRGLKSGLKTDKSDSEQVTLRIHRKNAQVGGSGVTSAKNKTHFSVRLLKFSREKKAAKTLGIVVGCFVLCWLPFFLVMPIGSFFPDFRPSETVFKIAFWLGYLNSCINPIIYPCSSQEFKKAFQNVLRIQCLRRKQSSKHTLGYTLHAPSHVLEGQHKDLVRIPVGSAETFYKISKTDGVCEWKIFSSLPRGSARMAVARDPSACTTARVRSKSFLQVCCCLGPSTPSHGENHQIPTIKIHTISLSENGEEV

rat α1B-receptor subtype [4] = biological target: T1, rat α1B-receptor subtype; conditions: average ± SEM, n=5
Protocol: as §1, §2, §3

[5] = biological target: T3, rat α1A/D-receptor subtype (Rattus norvegicus, UniProt P23944); conditions: average ± SEM, n=8
T3 sequence (P23944 1-561): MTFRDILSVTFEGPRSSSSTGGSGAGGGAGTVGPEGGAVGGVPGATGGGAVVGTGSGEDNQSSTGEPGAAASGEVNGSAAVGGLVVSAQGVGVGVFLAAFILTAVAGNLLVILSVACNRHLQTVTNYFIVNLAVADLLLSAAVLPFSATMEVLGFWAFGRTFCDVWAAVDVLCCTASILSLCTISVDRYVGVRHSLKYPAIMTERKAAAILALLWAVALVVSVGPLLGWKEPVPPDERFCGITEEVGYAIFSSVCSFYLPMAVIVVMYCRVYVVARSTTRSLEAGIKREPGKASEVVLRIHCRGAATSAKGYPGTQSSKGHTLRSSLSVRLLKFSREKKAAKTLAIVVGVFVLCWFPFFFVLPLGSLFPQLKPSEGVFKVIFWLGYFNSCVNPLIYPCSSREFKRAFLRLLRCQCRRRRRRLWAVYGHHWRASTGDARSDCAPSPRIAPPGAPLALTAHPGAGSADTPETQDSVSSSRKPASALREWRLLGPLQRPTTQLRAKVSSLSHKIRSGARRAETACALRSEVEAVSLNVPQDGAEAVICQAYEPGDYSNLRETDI
Protocol: as §1, §2, §3

[6] = read-out: negative logarism values (-log values) of Ki values (converted)

In the case of `CCOc1ccccc1OCCN[C@H](C)Cc1ccc(OC)c(S(N)(=O)=O)c1` [Compound A, R(-)-5-[2-[[2-(o-ethoxyphenoxy)ethyl]amino]propyl]-2-methoxybenzenesulfonamide], the Ki (rat α1B-receptor subtype [1]; [6]) is listed as 0.871 nM, the “influence upon blood pressure” value [2] is listed as “without exerting influence upon blood pressure” and the side effects [2] is listed as “hardly shows side effects”. For the same compound, the “treatment of urinary outlet obstruction associated with benign prostatic hyperplasia” value [2] was “useful in treating urinary outlet obstruction associated with benign prostatic hyperplasia” and the Ki [3] was 0.0229 nM.

Compound [³H] prazosin has a BMAX (rat α1B-receptor subtype [4]) of 1673 ± 1203 fmol/mg protein and a BMAX [5] of 240 ± 87 fmol/mg protein.

For `CCOc1ccccc1OCCN[C@@H](C)Cc1ccc(OC)c(S(N)(=O)=O)c1` [Compound B, S(+)-5-[2-[[2-(o-ethoxyphenoxy)ethyl]amino]propyl]-2-methoxybenzenesulfonamide], the Ki (rat α1B-receptor subtype [1]) was 105 nM and the Ki [3, 6] was 0.347 nM.
